Results published in patent US9388405B2, “Method for identifying a subpopulation of mammalian cells with distinctive ribosome translation profiles” (priority 2009, dated 2016).

Legend:
Type in all cases: cell-based, human
[1] = system: HEK293 CMV-fLUC #3, hTRdm-fLUC #13 and mTRdm-fLUC #45 subclones; experiment: Translation elongation inhibitor single-Toxin and two-Toxin (100 nM TPA) dose response; settings: for reporter protein level versus untreated control: 25 uM inhibitor + 100 nM TPA, HEK293 mTRdm-fLUC #45 subclone; for low dose sufficient to reduce reporter protein levels below untreated control cells: HEK293 CMV-fLUC #3 and mTRdm-fLUC #45 subclones
Method: At sufficiently large doses, these inhibitors immediately stop protein translation, and the resulting protein turnover reduces reporter protein levels below untreated cell levels (<100% control).
For the HEK293 CMV-fLUC #3 (top panel) and mTRdm-fLUC #45 (bottom panel) subclones, anisomycin and emetine antagonized the TPA response at the lowest tested dose (10 nM) and reduced reporter protein levels 50-300% compared to the TPA single-Toxin assay. This contrasted with puromycin, which required a 250 nM concentration (25×) to initially reduce protein synthesis below the TPA Single-Toxin assay level in all three cell lines. […] For example, the CMV-fLUC #3 subclone required a 2.5 uM puromycin dose to correlate with the other inhibitors, which contrasted with hTRdm-fLUC #13 and mTRdm-fLUC #45 subclones which needed a 25 uM puromycin concentration (a 10× increase).
In this example (FIG. 33), single-Toxin and two-Toxin dose responses were used to define translational responses associated with translation inhibitors. Inhibitors of protein biosynthesis generally act by interfering with translational initiation (assembly of the components or structures required for translation) or elongation (enzymatic process of peptide synthesis and chain movement within the ribosome). A variety of translational inhibitors exist that affect each of these stages. Due to the fact that cap-dependent and cap-independent translation display distinct translational initiation mechanisms, this example focused on translational inhibitors associated with peptide elongation. Since the majority of these enzymatic processes are common to cap-dependent and cap-independent translation, any significant differences in chain elongation reflect differences in peptide synthesis.
A dose response single-Toxin assay was used to examine translation regulation in HEK293 cells (FIG. 33A). […] For example, translation inhibition stops reporter protein production, and protein turnover reduces reporter activity below the basal level. In this example, a 250 nM concentration of each inhibitor was sufficient to reduce protein synthesis below control cell levels in cap-dependent and cap-independent assays (FIG. 33A). Furthermore, any dose above 2.5 uM produced only minimal additional reductions in reporter protein activity supporting the theory that translation in these assays had ceased.
In a second effort, a two-Toxin dose response assay was performed by varying the concentration of the elongation inhibitors in combination with the 100 nM TPA activator (FIG. 33B). This combinatorial assay was designed to examine protein synthesis in stimulated cells preferentially translating the TR transcript. As in the single-Toxin assays, cap-dependent translation was arrested by 2.5 uM puromycin (top panel) which contrasted with the cap-independent assays where a 10× increase in puromycin concentration (25 uM) was needed to prevent new protein synthesis. However even at this highest tested dose, immediate translation inhibition was not observed in any cell line (FIG. 33C).

[2] = system: MCF7 CMV-fLuc subclone #65; experiment: Topoisomerase 1 inhibitor single-Toxin and two-Toxin (100 nM TPA) dose response, cap-dependent; settings: 10 nM to 10 uM; for dose at peak of fLuc protein expression: 6 hr; for dose at peak of fLuc protein expression / effect on TPA-specific translational response: cap-dependent; for effect on TPA-specific translational response: two-Toxin with constant 100 nM TPA
Method: FIG. 28A illustrates a dose response assay of the MCF7 CMV-fLuc subclone #65 treated with varying doses (10 nM to 10 uM range) of the following Topoisomerase 1 inhibitors: camptothecin, topotecan, irinotecan, and rubitecan. Following a 6 hr incubation in a single-Toxin assay, cells were lysed and fLuc protein activity measured using a standard microplate reader assay. The plate reader values were averaged and expressed as the ratio of treated to untreated samples (Fold Induction). The dashed line represents the level of translational response in untreated cell samples.
FIG. 28B illustrates the use of a Combinatorial Assay to examine the effects of Topoisomerase 1 inhibitors on cap-dependent translation. A series of dose response assays were performed on the MCF7 CMV-fLuc subclone #65 using varying doses of the Topoisomerase 1 inhibitors (10 nM to 10 uM range) in a Two-Toxin assay with a constant 100 nM TPA dose. The plate reader values were averaged and expressed as the ratio of treated to untreated samples (Fold Induction). The dashed line represents the level of translational response in untreated samples.
FIG. 28A illustrates a cap-dependent dose response assay of MCF7 cells treated with varying dosages (10 nM to 10 uM range) of the following TopoI inhibitors: camptothecin, topotecan, irinotecan, and rubitecan. […] While the altered irinotecan response might have been predicted based on its metabolic requirements, the lack of topotecan action on cap-dependent translation in the single-Toxin assays was unexpected.
Since similar doses inhibited translation in the single-Toxin assays (FIG. 28A), this effect might have represented a direct effect on translation.

[3] = system: MCF7 mTRdm-fLuc subclone #27; experiment: Topoisomerase 1 inhibitor single-Toxin and two-Toxin (100 nM TPA) dose response, cap-independent; settings: 10 nM to 10 uM; for effect on cap-independent translation: single-Toxin; for effect on TPA activity: two-Toxin with 100 nM TPA
Method: FIG. 28C illustrates the use of single-Toxin Assays to measure the effects of Topoisomerase 1 inhibitors on cap-independent translation in MCF7 cells. Triplicate samples of the MCF7 mTRdm-fLuc subclone #27 were treated with varying concentrations (10 nM to 10 uM range) of the Topoisomerase 1 inhibitors; camptothecin, rubitecan, irinotecan and topotecan. The plate reader values were averaged and expressed as the ratio of treated to untreated samples (Fold Induction). The dashed line represents the level of translational response in untreated controls.
FIG. 28D illustrates the use of a two-Toxin Combinatorial Assay on the MCF7 mTRdm-fLuc subclone #27 treated with 100 nM TPA plus varying doses (10 nM to 10 uM range) of the Topoisomerase 1 inhibitors. The plate reader values were averaged and expressed as the ratio of treated to untreated samples (Fold Induction). The dashed line represents the level of translational response in untreated samples. All four inhibitors acted synergistically with TPA to increase protein activity in the 10 nM two-Toxin assay.
FIG. 28D illustrates the use of a two-Toxin dose response assay using varying dosages of the TopoI inhibitors in combination with the 100 nM TPA translational activator. All four inhibitors acted synergistically with TPA at low doses to increase protein translation. At concentrations higher than 100 nM, camptothecin, rubitecan, and topotecan antagonized the TPA response and reduced the fLUC expression.

[4] = system: MCF7 CMV-fLuc subclones #44 and #48; experiment: PKC activator dose response, cap-dependent translation (fLuc); settings: single-Toxin
Method: Following 6 hr exposure to the Single-Toxin TPA assay, cells were lysed and fLuc protein activity measured using a standard microplate reader assay. The raw values were averaged and expressed as the ratio of treated to untreated samples (Fold Induction).
Dashed lines represent translational response levels produced by a 100 nM TPA Single-Toxin assay. The Bryostatin 1 concentrations (top panel) encompassed the TPA concentrations used in FIG. 27A. […] The Bryostatin 2 dose response curve (bottom panel) employed higher drug concentrations (the maximal tested dose was 5× the largest TPA and Bryostatin 1 amounts). At the highest tested dose (2.5 uM), Bryostatin 2 produced fLuc activity consistent with the level observed with 100 nM TPA.
In addition to measuring cap-dependent and cap-independent translational effects, Class-specific translational activity and toxin-defined actions, the previously described materials and methods allow for a variety of applications designed to detect and characterize agents and processes that regulate ribosome activity. In this example, comparative dose response assays were used to detect cap-dependent and cap-independent translational regulation in MCF7 cells. The basis for this application was the observation that distinct translational responses are produced by compounds at different doses. When an assortment of compounds act on a common molecular target, they can be grouped into a genus of related drugs. By comparing individual species of a compound genus over a defined dose range, differences in translational regulation can be defined. Furthermore, these translational differences can often be linked to biological differences.
In this example (FIG. 27), the three PKC activators produced similar dose response trends in cap-dependent assays. […] However, macrolide lactones produced translational increases that were generally 60-70% of the TPA translational response (FIG. 27B). In fact, a 25 fold increase in Bryostatin 2 concentration (2.5 uM) was needed to produce a translational magnitude similar to the 100 nM TPA assay (FIG. 27B).

[5] = system: MCF7 mTRdm-fLuc subclones #8, #27, and #45; experiment: PKC activator dose response, cap-independent TR translation (fLuc); settings: single-Toxin
Method: Following 6 hr culture with a TPA single-Toxin assay, cells were lysed and fLuc protein activity measured using a standard microplate reader assay. The plate reader values were averaged and expressed as the ratio of treated to untreated samples (Fold Induction).
As with FIG. 27B, dashed lines represent translational response levels achieved by the 100 nM TPA assay in each cell line. […] A further difference between the cap-dependent and cap-independent assays was the observation that increased Bryostatin 2 concentrations (5× the maximal TPA dose) never produced fLUC activity equivalent to the 100 nM TPA assay. Thus, the Toxin Assay procedure can detect a statistically significant difference in cap-dependent and cap-independent translation in compounds that activate PKC activity.
In the cap-independent assays, a similar dose response trend was observed over a 1 nM to 250 nM range with a translational peak at a 100 nM dose. However, the magnitude of the Bryostatin increases were generally 30% of 100 nM TPA response.

COc1ccc(C[C@H](N)C(=O)N[C@H]2[C@@H](O)[C@H](n3cnc4c(N(C)C)ncnc43)O[C@@H]2CO)cc1 [puromycin]
reporter protein level versus untreated control [1]: little or no reduction below untreated control cell levels | concentration required to reduce reporter protein levels to levels comparable to the other three inhibitors ([1]; single-Toxin, cap-dependent and cap-independent): 2.5 µM | dose required to correlate with the other inhibitors (translation arrested) ([1]; two-Toxin with 100 nM TPA, CMV-fLUC #3 subclone, cap-dependent): 2.5 µM | concentration required to initially reduce protein synthesis below the TPA Single-Toxin assay level ([1]; two-Toxin with 100 nM TPA, all three cell lines): 250 nM | concentration needed to correlate with the other inhibitors (prevent new protein synthesis) ([1]; two-Toxin with 100 nM TPA, hTRdm-fLUC #13 and mTRdm-fLUC #45, cap-independent): 25 µM

CC[C@@]1(O)C(=O)OCc2c1cc1n(c2=O)Cc2cc3ccccc3nc2-1 [camptothecin]
dose at peak of fLuc protein expression ([2]; single-Toxin): ~1 µM | effect on TPA-specific translational response [2]: acted synergistically with TPA to increase fLUC protein activity up to a 1 uM dose | effect on cap-independent translation [3]: exhibited reduced fLUC activity at higher doses (5 uM and 10 uM) | effect on TPA activity [3]: antagonized the TPA activity and exhibited reduced fLUC expression

CCC/C=C/C=C/C(=O)O[C@H]1/C(=C/C(=O)OC)C[C@H]2C[C@H]([C@@H](C)O)OC(=O)C[C@H](O)C[C@@H]3C[C@H](OC(C)=O)C(C)(C)[C@](O)(C[C@@H]4C/C(=C/C(=O)OC)C[C@H](/C=C/C(C)(C)[C@]1(O)O2)O4)O3 [Bryostatin 1]
magnitude of reporter activity versus 100 nM TPA assay ([4]; 500 pM to 500 nM): never reached the fLuc activity level produced by the 100 nM TPA assay | dose giving maximal reporter level (translational peak) ([4]; 6 hr): 100 nM | magnitude of translational response versus 100 nM TPA tests [5]: never reached the fLuc activity produced in 100 nM TPA tests | dose giving peak fLuc protein activity ([5]; 6 hr): 100 nM

CC[C@@]1(O)C(=O)OCc2c1cc1n(c2=O)Cc2cc3c([N+](=O)[O-])cccc3nc2-1 [rubitecan]
dose at peak of fLuc protein expression ([2]; single-Toxin): ~1 µM | effect on TPA-specific translational response [2]: acted synergistically with TPA to increase fLUC protein activity up to a 1 uM dose | effect on cap-independent translation [3]: exhibited reduced fLUC activity at higher doses (5 uM and 10 uM) | effect on TPA activity [3]: antagonized the TPA activity and exhibited reduced fLUC expression

CC[C@H]1CN2CCc3cc(OC)c(OC)cc3[C@@H]2C[C@@H]1C[C@H]1NCCc2cc(OC)c(OC)cc21 [emetine]
reporter protein level versus untreated control [1]: little or no reduction below untreated control cell levels | low dose sufficient to reduce reporter protein levels below untreated control cells ([1]; single-Toxin): 100 nM

C[C@@H]1C[C@@H]([C@H](O)CC2CC(=O)NC(=O)C2)C(=O)[C@@H](C)C1 [cycloheximide]
reporter protein level versus untreated control [1]: little or no reduction below untreated control cell levels

CCc1c2c(nc3ccc(OC(=O)N4CCC(N5CCCCC5)CC4)cc13)-c1cc3c(c(=O)n1C2)COC(=O)[C@]3(O)CC [irinotecan]
effect on cap-dependent translation ([2]; single-Toxin): neither topotecan or irinotecan significantly altered cap-dependent translation | effect on TPA-specific translational response [2]: did not produce any significant change in the TPA-specific translational response | effect on cap-independent translation [3]: constant amount of fLUC activity at all tested concentrations | effect on TPA activity [3]: displayed synergistic action with TPA and enhanced fLUC activity at all tested doses

COc1ccc(C[C@H]2NC[C@H](O)[C@H]2OC(C)=O)cc1 [anisomycin]
reduction of reporter protein levels compared to the TPA single-Toxin assay ([1]; 10 nM inhibitor + 100 nM TPA, CMV-fLUC #3 and mTRdm-fLUC #45): 50-300% | low dose sufficient to reduce reporter protein levels below untreated control cells ([1]; single-Toxin): ~25 nM
